Tested on: tobacco budworm (Heliothis virescens [Fabricius])
Test: surface-treated diet test, insecticidal activity against tobacco budworm
Assay type: in vivo
Details: 0.25 millimoles of candidate insecticide on the surface of the diet, second instar larvae, five-day exposure; for Percent Mortality: compared to total number of insects infested; for Percent Growth Inhibition: inhibition of insect weight relative to untreated controls
Method in brief: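 Second-instar larvae (~5 mg) were held five days at 25° C and 60% RH on artificial diet whose surface carried dried compound (0.25 millimolar standard rate; DMSO serial dilutions for rate series, six replicates each). Readouts: mortality and weight inhibition relative to DMSO-treated controls.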

With `[O-][N+]1(Cc2ccc(OCC3CC3)cc2)CCC(O)(C(c2ccc(OC(F)(F)F)cc2)c2ccc(OC(F)(F)F)cc2)CC1` (stereo not shown) [Compound 392] the “Percent Mortality” value was 100% and the “Percent Growth Inhibition” value was 100%.
`[O-][N+]1(Cc2ccc(OCc3ccccc3)cc2)CCC(O)(C(c2ccc(C(F)(F)F)cc2)c2ccc(C(F)(F)F)cc2)CC1` (stereo not shown) [Compound 393] was tested, and the “Percent Mortality” value was 100% and the “Percent Growth Inhibition” value was 100%.
`[O-][N+]1(Cc2ccc(Oc3ncccc3Cl)cc2)CCC(O)(C(c2ccc(OC(F)(F)F)cc2)c2ccc(OC(F)(F)F)cc2)CC1` (stereo not shown) [Compound 399] was tested, and the “Percent Mortality” value was 100% and the “Percent Growth Inhibition” value was 100%.
In the case of `[O-][N+]1(Cc2ccc(Oc3ncccn3)cc2)CCC(O)(C(c2ccc(Cl)cc2)c2ccc(OC(F)(F)F)cc2)CC1` (stereo not shown) [Compound 402], the “Percent Mortality” value is reported as 100% and the “Percent Growth Inhibition” value is reported as 100%.
In the case of `O=C(Nc1ccc(C[N+]2([O-])CCC(O)(C(c3ccc(OC(F)(F)F)cc3)c3ccc(OC(F)(F)F)cc3)CC2)cc1)OCC1CC1` (stereo not shown) [Compound 404], the “Percent Mortality” value is reported as 100% and the “Percent Growth Inhibition” value is reported as 100%.
In the case of `CCON=Cc1ccc(C[N+]2([O-])CCC(O)(C(c3ccc(Cl)cc3)c3ccc(OC(F)(F)F)cc3)CC2)cc1` (stereo not shown) [Compound 405], the “Percent Mortality” value is reported as 100% and the “Percent Growth Inhibition” value is reported as 100%.
In the case of `CC(C)OC(=O)c1ccc(C[N+]2([O-])CCC(O)(C(c3ccc(C(F)(F)F)cc3)c3ccc(C(F)(F)F)cc3)CC2)cc1` (stereo not shown) [Compound 407], the “Percent Mortality” value is reported as 100% and the “Percent Growth Inhibition” value is reported as 100%.
In the case of `[O-][N+]1(Cc2ccc(Oc3ncccn3)cc2)CCC(O)(C(c2ccc(OC(F)(F)C(F)C(F)(F)F)cc2)c2ccc(OC(F)(F)C(F)C(F)(F)F)cc2)CC1` (stereo not shown) [Compound 409], the “Percent Mortality” value is reported as 100% and the “Percent Growth Inhibition” value is reported as 100%.
`NC(=O)CON=Cc1ccc(C[N+]2([O-])CCC(O)(C(c3ccc(OC(F)(F)F)cc3)c3ccc(OC(F)(F)F)cc3)CC2)cc1` (stereo not shown) [Compound 410] was tested, and the “Percent Mortality” value was 100% and the “Percent Growth Inhibition” value was 100%.
With `[O-][N+]1(Cc2ccc(-c3ncccc3Cl)cc2)CCC(O)(C(c2ccc(OC(F)(F)F)cc2)c2ccc(OC(F)(F)F)cc2)CC1` (stereo not shown) [Compound 411] the “Percent Mortality” value was 100% and the “Percent Growth Inhibition” value was 100%.
For `[O-][N+]1(Cc2ccc(Oc3ccc(Cl)nn3)cc2)CCC(O)(C(c2ccc(OC(F)(F)F)cc2)c2ccc(OC(F)(F)F)cc2)CC1` (stereo not shown) [Compound 412], the “Percent Mortality” value was 100% and the “Percent Growth Inhibition” value was 100%.
With `Cc1ccc(Oc2ccc(C[N+]3([O-])CCC(O)(C(c4ccc(OC(F)(F)F)cc4)c4ccc(OC(F)(F)F)cc4)CC3)cc2)nn1` (stereo not shown) [Compound 413] the “Percent Mortality” value was 100% and the “Percent Growth Inhibition” value was 100%.
In the case of `CCn1nnc(-c2ccc(CN3CCC(O)(C(O)(c4ccc(OC(F)(F)F)cc4)c4ccc(OC(F)(F)F)cc4)CC3)cc2)n1` [Compound 416], the “Percent Mortality” value is reported as 100% and the “Percent Growth Inhibition” value is reported as 100%.
With `CCON=Cc1ccc(CN2CCC(O)(C(O)(c3ccc(OC(F)(F)F)cc3)c3ccc(OC(F)(F)F)cc3)CC2)cc1` [Compound 417] the “Percent Mortality” value was 100% and the “Percent Growth Inhibition” value was 100%.
`O=Cc1ccc(CN2CCC(O)(C(O)(c3ccc(OC(F)(F)F)cc3)c3ccc(OC(F)(F)F)cc3)CC2)cc1` [Compound 418] was tested, and the “Percent Mortality” value was 0% and the “Percent Growth Inhibition” value was 83%.
For `CC(C)OC(=O)Nc1ccc(CN2CCC(O)(C(O)(c3ccc(OC(F)(F)F)cc3)c3ccc(OC(F)(F)F)cc3)CC2)cc1` [Compound 419], the “Percent Mortality” value was 100% and the “Percent Growth Inhibition” value was 100%.
`[O-][N+]1(Cc2ccc(Oc3ccccn3)cc2)CCC(O)(C(O)(c2ccc(OC(F)(F)F)cc2)c2ccc(OC(F)(F)F)cc2)CC1` (stereo not shown) [Compound 421] was tested, and the “Percent Mortality” value was 100% and the “Percent Growth Inhibition” value was 100%.
For `[O-][N+]1(Cc2ccc(Oc3ncccn3)cc2)CCC(O)(C(O)(c2ccc(OC(F)(F)F)cc2)c2ccc(OC(F)(F)F)cc2)CC1` (stereo not shown) [Compound 422], the “Percent Mortality” value was 100% and the “Percent Growth Inhibition” value was 100%.
With `CC(C)OC(=O)Nc1ccc(C[N+]2([O-])CCC(O)(C(O)(c3ccc(OC(F)(F)F)cc3)c3ccc(OC(F)(F)F)cc3)CC2)cc1` (stereo not shown) [Compound 423] the “Percent Mortality” value was 100% and the “Percent Growth Inhibition” value was 100%.
For `CCON=Cc1ccc(C[N+]2([O-])CCC(O)(C(O)(c3ccc(OC(F)(F)F)cc3)c3ccc(OC(F)(F)F)cc3)CC2)cc1` (stereo not shown) [Compound 424], the “Percent Mortality” value was 100% and the “Percent Growth Inhibition” value was 100%.
For `[O-][N+]1(Cc2ccc(Oc3ccc(Cl)nn3)cc2)CCC(O)(C(O)(c2ccc(OC(F)(F)F)cc2)c2ccc(OC(F)(F)F)cc2)CC1` (stereo not shown) [Compound 425], the “Percent Mortality” value was 100% and the “Percent Growth Inhibition” value was 100%.
In the case of `CCn1nnc(-c2ccc(C[N+]3([O-])CCC(O)(C(O)(c4ccc(OC(F)(F)F)cc4)c4ccc(OC(F)(F)F)cc4)CC3)cc2)n1` (stereo not shown) [Compound 426], the “Percent Mortality” value is reported as 100% and the “Percent Growth Inhibition” value is reported as 100%.
With `[O-][N+]1(Cc2ccc(Oc3ccccn3)cc2)CCC(O)(C(F)(c2ccc(OC(F)(F)F)cc2)c2ccc(OC(F)(F)F)cc2)CC1` (stereo not shown) [Compound 430] the “Percent Mortality” value was 100% and the “Percent Growth Inhibition” value was 100%.
`[O-][N+]1(Cc2ccc(Oc3ccccn3)cc2)CCC2(CC1)OC2(c1ccc(OC(F)(F)F)cc1)c1ccc(OC(F)(F)F)cc1` (stereo not shown) [Compound 431] was tested, and the “Percent Mortality” value was 100% and the “Percent Growth Inhibition” value was 100%.
`OC1(C(c2ccc(OC(F)(F)F)cc2)c2ccc(Cl)cc2Cl)CCN(Cc2ccc(Oc3ccccn3)cc2)CC1` (stereo not shown) [Compound 433] was tested, and the “Percent Mortality” value was 100% and the “Percent Growth Inhibition” value was 100%.
In the case of `OC1(C(c2ccccc2F)c2ccccc2F)CCN(Cc2ccc(Oc3ncccn3)cc2)CC1` [Compound 434], the “Percent Mortality” value is reported as 0% and the “Percent Growth Inhibition” value is reported as 56%.
With `Cc1cc(C(c2ccc(OC(F)(F)F)cc2)C2(O)CCN(Cc3ccc(Oc4ccccn4)cc3)CC2)ccc1Cl` (stereo not shown) [Compound 435] the “Percent Mortality” value was 100% and the “Percent Growth Inhibition” value was 100%.
In the case of `Cc1cc(Cl)ccc1C(c1ccc(OC(F)(F)F)cc1)C1(O)CCN(Cc2ccc(Oc3ccccn3)cc2)CC1` (stereo not shown) [Compound 436], the “Percent Mortality” value is reported as 100% and the “Percent Growth Inhibition” value is reported as 100%.
With `OC1(C(c2ccc(OC(F)(F)F)cc2)c2ccccc2Cl)CCN(Cc2ccc(Oc3ccccn3)cc2)CC1` (stereo not shown) [Compound 437] the “Percent Mortality” value was 100% and the “Percent Growth Inhibition” value was 100%.
`OC1(C(c2ccc(OC(F)(F)F)cc2)c2cccc(Cl)c2Cl)CCN(Cc2ccc(Oc3ccccn3)cc2)CC1` (stereo not shown) [Compound 438] was tested, and the “Percent Mortality” value was 100% and the “Percent Growth Inhibition” value was 100%.
With `OC1(C(c2ccc(OC(F)(F)F)cc2)c2cccc(Cl)c2)CCN(Cc2ccc(Oc3ccccn3)cc2)CC1` (stereo not shown) [Compound 439] the “Percent Mortality” value was 100% and the “Percent Growth Inhibition” value was 100%.
With `CCON=Cc1ccc(C(c2ccc(OC(F)(F)F)cc2)C2(O)CCN(Cc3ccc(Oc4ccccn4)cc3)CC2)cc1` (stereo not shown) [Compound 440] the “Percent Mortality” value was 100% and the “Percent Growth Inhibition” value was 100%.
`OC1(C(c2ccc(OC(F)(F)F)cc2)c2ccc(Cl)c(Cl)c2)CCN(Cc2ccc(Oc3ccccn3)cc2)CC1` (stereo not shown) [Compound 441] was tested, and the “Percent Mortality” value was 100% and the “Percent Growth Inhibition” value was 100%.
With `OC1(C(c2ccc(OC(F)(F)F)cc2)c2cc(Cl)cc(Cl)c2)CCN(Cc2ccc(Oc3ccccn3)cc2)CC1` (stereo not shown) [Compound 442] the “Percent Mortality” value was 100% and the “Percent Growth Inhibition” value was 100%.
For `OC1(C(c2ccc(OC(F)(F)F)cc2)c2cc(Cl)ccc2Cl)CCN(Cc2ccc(Oc3ccccn3)cc2)CC1` (stereo not shown) [Compound 443], the “Percent Mortality” value was 100% and the “Percent Growth Inhibition” value was 100%.
With `CCON=Cc1ccc(CN2CCC(O)(C(c3ccc(OC(F)(F)F)cc3)c3ccc(Cl)cc3Cl)CC2)cc1` (stereo not shown) [Compound 444] the “Percent Mortality” value was 100% and the “Percent Growth Inhibition” value was 100%.
With `OC1(C(c2ccc(OC(F)(F)F)cc2)c2ccc(Cl)cc2F)CCN(Cc2ccc(Oc3ccccn3)cc2)CC1` (stereo not shown) [Compound 445] the “Percent Mortality” value was 100% and the “Percent Growth Inhibition” value was 100%.
In the case of `OC1(C(c2ccc3c(c2)OC(F)(F)O3)c2ccc3c(c2)OC(F)(F)O3)CCN(Cc2ccc(Oc3ccccn3)cc2)CC1` [Compound 446], the “Percent Mortality” value is reported as 100% and the “Percent Growth Inhibition” value is reported as 100%.
With `COc1cc(CN2CCC(O)(C(c3ccc(OC(F)(F)F)cc3)c3ccc(OC(F)(F)F)cc3)CC2)ccc1Oc1ccccn1` [Compound 447] the “Percent Mortality” value was 100% and the “Percent Growth Inhibition” value was 100%.
In the case of `OCC1(C(c2ccc(C(F)(F)F)cc2)c2ccc(C(F)(F)F)cc2)CCN(Cc2ccc(Oc3ncccn3)cc2)CC1` [Compound 448], the “Percent Mortality” value is reported as 0% and the “Percent Growth Inhibition” value is reported as 96%.
For `[N-]=[N+]=NCC1(C(c2ccc(C(F)(F)F)cc2)c2ccc(C(F)(F)F)cc2)CCN(Cc2ccc(OCC3CC3)cc2)CC1` [Compound 449], the “Percent Mortality” value was 0% and the “Percent Growth Inhibition” value was 78%.
For `NCC1(C(c2ccc(C(F)(F)F)cc2)c2ccc(C(F)(F)F)cc2)CCN(Cc2ccc(OCC3CC3)cc2)CC1` [Compound 450], the “Percent Mortality” value was 50% and the “Percent Growth Inhibition” value was 100%.
In the case of `CC(=O)NCC1(C(c2ccc(C(F)(F)F)cc2)c2ccc(C(F)(F)F)cc2)CCN(Cc2ccc(Oc3ncccn3)cc2)CC1` [Compound 451], the “Percent Mortality” value is reported as 0% and the “Percent Growth Inhibition” value is reported as 100%.
For `CC(=O)OCC1(C(c2ccc(C(F)(F)F)cc2)c2ccc(C(F)(F)F)cc2)CCN(Cc2ccc(Oc3ncccn3)cc2)CC1` [Compound 452], the “Percent Mortality” value was 0% and the “Percent Growth Inhibition” value was 100%.
`CCON=Cc1ccc(C[N+]2([O-])CCC(O)(C(c3ccc(OC(F)(F)F)cc3)c3ccc(Cl)cc3Cl)CC2)cc1` (stereo not shown) [Compound 453] was tested, and the “Percent Mortality” value was 100% and the “Percent Growth Inhibition” value was 100%.
For `[O-][N+]1(Cc2ccc(Oc3ccccn3)cc2)CCC(O)(C(c2ccc(OC(F)(F)F)cc2)c2ccc(Cl)cc2Cl)CC1` (stereo not shown) [Compound 454], the “Percent Mortality” value was 100% and the “Percent Growth Inhibition” value was 100%.
For `[O-][N+]1(Cc2ccc(Oc3ccccn3)cc2)CCC(O)(C(c2ccc(OC(F)(F)F)cc2)c2ccc(Cl)c(Cl)c2)CC1` (stereo not shown) [Compound 455], the “Percent Mortality” value was 100% and the “Percent Growth Inhibition” value was 100%.

From patent US8119563B2, “N-substituted azacycles” (FMC Corporation, priority 2003, dated 2012)
